The test system of one experiment is F35T cells. Put plainly: Foci reduction in FECD (CAG10-Cy3 FISH, foci per nucleus). The format is cell-based. The following applies: F35T cells, 48 h treatment, foci per nucleus; read-out: FECD EC50, 48 h. The method, boiled down: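 Foci per nucleus were counted by imaging after overnight CAG10-Cy3 FISH at 37 °C (30% formamide, 2×SSC) with DAPI counterstain, on PFA-fixed, ethanol-permeabilized F35T cells. The cells, seeded at 5000 per well in supplemented Opti-MEM, had received 8-point compound dilutions for 48 h at 37 °C.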

For experiment [1], the system named is Myotonic Dystrophy 1 affected patient fibroblasts (Coriel GM04602; 1600 CTG repeats). Nature of the experiment: DM1 foci reduction assay (EC50 assay; CAG10-Cy3 FISH, foci per nucleus). The following applies: Homo sapiens, Fibroblast; DM1 patient fibroblasts, 48 h treatment, foci per nucleus; read-out: DM1 EC50, 48 h. The format is cell-based. The method, boiled down:
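Foci per nucleus counted by 20× imaging of 4 areas per well, after overnight FISH with 5 nM CAG10-Cy3 and DAPI staining of fixed, permeabilized cells. DM1 fibroblasts (GM04602, 1600 CTG) were dosed 48 h at 37 °C, 8 points, 3-fold dilutions, 3 μM top concentration.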

Broadly, the EC50 is the concentration at which the effect is half-maximal. Take `CC(Nc1cc(C(=O)NCCC(=O)Nc2cn(C)c(C(=O)Nc3cc(C(=O)NCCCC(=O)Nc4cn(C)c(C(=O)Nc5cc(C(=O)NCCC(=O)Nc6cn(C)c(C(=O)NCCC(=O)NCCOCCOCCOCCOCCOCCNC(=O)[C@H](CO)NC(=O)OC(C)(C)C)n6)n(C)c5)n4)n(C)c3)n2)n(C)c1)c1nccn1C` (stereo partly drawn) [Compound B-110]: the half-maximal effective concentration (EC50) lay in the range of 100 to 500 nM in the experiment with F35T cells and 500 to 1000 nM in experiment [1].
For `CC(Nc1cc(C(=O)NCCC(=O)Nc2cn(C)c(C(=O)Nc3cc(C(=O)NCCCC(=O)Nc4cn(C)c(C(=O)Nc5cc(C(=O)NCCC(=O)Nc6cn(C)c(C(=O)NCCC(=O)NCCOCCOCCOCCOCCOCCNC(=O)[C@@H](N)CO)n6)n(C)c5)n4)n(C)c3)n2)n(C)c1)c1nccn1C` (stereo partly drawn) [Compound B-111], the EC50 in the experiment on F35T cells is over 1000 nM; in experiment [1], 500 to 1000 nM.
In the case of `Cn1cc(NC(=O)c2nc(NC(=O)CCNC(=O)c3cc(NC(=O)c4nccn4C)cn3C)cn2C)cc1C(=O)NCCCC(=O)Nc1cn(C)c(C(=O)NCCC(=O)Nc2cc(C(=O)Nc3cn(C)c(C(=O)NCCC(=O)NCCCCC#N)n3)n(C)c2)n1` [Compound B-113], the EC50 (with F35T cells; in experiment [1]) was under 100 nM in each case.
On to `CC(=O)N1CCC(CN2CCN(C(=O)CCNC(=O)c3nc(NC(=O)c4cc(NC(=O)CCNC(=O)c5nc(NC(=O)CCCNC(=O)c6cc(NC(=O)c7nc(NC(=O)CCNC(=O)c8cc(NC(=O)c9nccn9C)cn8C)cn7C)cn6C)cn5C)cn4C)cn3C)CC2)CC1` [Compound B-115], for which the EC50 with F35T cells was in the range of 500 to 1000 nM; in experiment [1], 100 to 500 nM.
The like results for `Cn1cc(NC(=O)c2nc(NC(=O)CCNC(=O)c3cc(NC(=O)c4nccn4C)cn3C)cn2C)cc1C(=O)NCCCC(=O)Nc1cn(C)c(C(=O)NCCC(=O)Nc2cc(C(=O)Nc3cn(C)c(C(=O)NCCC(=O)N4CCN(C5CCNCC5)CC4)n3)n(C)c2)n1` [Compound B-117] were, in that order, 500 to 1000 nM and 100 to 500 nM.
As for `CC(=O)N1CCC(N2CCN(C(=O)CCNC(=O)c3nc(NC(=O)c4cc(NC(=O)CCNC(=O)c5nc(NC(=O)CCCNC(=O)c6cc(NC(=O)c7nc(NC(=O)CCNC(=O)c8cc(NC(=O)c9nccn9C)cn8C)cn7C)cn6C)cn5C)cn4C)cn3C)CC2)CC1` [Compound B-119], the concentration for a half-maximal effect (EC50) was in the range of 500 to 1000 nM in the experiment with F35T cells and 100 to 500 nM in experiment [1].
In the case of `CN1CCC(N2CCN(C(=O)CCNC(=O)c3nc(NC(=O)c4cc(NC(=O)CCNC(=O)c5nc(NC(=O)CCCNC(=O)c6cc(NC(=O)c7nc(NC(=O)CCNC(=O)c8cc(NC(=O)c9nccn9C)cn8C)cn7C)cn6C)cn5C)cn4C)cn3C)CC2)CC1` [Compound B-120], the EC50 in the experiment with F35T cells was over 1000 nM; in experiment [1] it was 500 to 1000 nM.
As for `CC(=O)N1CCC(C#CC#CC2CCN(CCOCCOCCOCCNC(=O)CCNC(=O)c3nc(NC(=O)c4cc(NC(=O)CCNC(=O)c5nc(NC(=O)CCCNC(=O)c6cc(NC(=O)c7nc(NC(=O)CCNC(=O)c8cc(NC(=O)c9nccn9C)cn8C)cn7C)cn6C)cn5C)cn4C)cn3C)CC2)CC1` [Compound B-121], the EC50 (in the experiment with F35T cells; in experiment [1]) was 100 to 500 nM each time.
On to `CC(C)C(=O)N1CCC(C#CC#CC2CCN(CCOCCOCCOCCNC(=O)CCNC(=O)c3nc(NC(=O)c4cc(NC(=O)CCNC(=O)c5nc(NC(=O)CCCNC(=O)c6cc(NC(=O)c7nc(NC(=O)CCNC(=O)c8cc(NC(=O)c9nccn9C)cn8C)cn7C)cn6C)cn5C)cn4C)cn3C)CC2)CC1` [Compound B-122], for which the EC50 (in the experiment on F35T cells; in experiment [1]) was 100 to 500 nM each time.
On to `Cn1cc(NC(=O)c2nc(NC(=O)CCNC(=O)c3cc(NC(=O)c4nccn4C)cn3C)cn2C)cc1C(=O)NCCCC(=O)Nc1cn(C)c(C(=O)NCCC(=O)Nc2cc(C(=O)Nc3cn(C)c(C(=O)NCCC(=O)NCCOCCOCCOCCN4CCC(C#CC#CC5CCN(C(=O)C(C)(C)C)CC5)CC4)n3)n(C)c2)n1` [Compound B-123], for which the EC50 with F35T cells was 100 to 500 nM; in experiment [1], under 100 nM.
Take `CC(C)N1CCC(C#CC#CC2CCN(CCOCCOCCOCCNC(=O)CCNC(=O)c3nc(NC(=O)c4cc(NC(=O)CCNC(=O)c5nc(NC(=O)CCCNC(=O)c6cc(NC(=O)c7nc(NC(=O)CCNC(=O)c8cc(NC(=O)c9nccn9C)cn8C)cn7C)cn6C)cn5C)cn4C)cn3C)CC2)CC1` [Compound B-124]: the EC50 is 500 to 1000 nM with F35T cells and 100 to 500 nM in experiment [1].
For `CN1CCC(C#CC#CC2CCN(CCOCCOCCOCCNC(=O)CCNC(=O)c3nc(NC(=O)c4cc(NC(=O)CCNC(=O)c5nc(NC(=O)CCCNC(=O)c6cc(NC(=O)c7nc(NC(=O)CCNC(=O)c8cc(NC(=O)c9nccn9C)cn8C)cn7C)cn6C)cn5C)cn4C)cn3C)CC2)CC1` [Compound B-125], the EC50 (in the experiment with F35T cells; in experiment [1]) was 100 to 500 nM each time.
Regarding `Cn1cc(NC(=O)c2nc(NC(=O)CCNC(=O)c3cc(NC(=O)c4nccn4C)cn3C)cn2C)cc1C(=O)NCCCC(=O)Nc1cn(C)c(C(=O)NCCC(=O)Nc2cc(C(=O)Nc3cn(C)c(C(=O)NCCC(=O)N4CCC(C#CC#CC5CCNCC5)CC4)n3)n(C)c2)n1` [Compound B-126, 1-Methyl-4-(3-{[1-methyl-4-(1-methylimidazole-2-amido)pyrrol-2-yl]formamido}propanamido)-N-(1-methyl-5-{[3-({1-methyl-2-[(2-{[1-methyl-5-({1-methyl-2-[(3-oxo-3-{4-[4-(piperidin-4-yl)buta-1,3-diyn-1-yl]piperidin-1-yl}propyl)carbamoyl]imidazol-4-yl}carbamoyl)pyrrol-3-yl]carbamoyl}ethyl)carbamoyl]imidazol-4-yl}carbamoyl)propyl]carbamoyl}pyrrol-3-yl)imidazole-2-carboxamide], the EC50 (in the experiment with F35T cells; in experiment [1]) was under 100 nM throughout.
Regarding `Cn1cc(NC(=O)c2nc(NC(=O)CCNC(=O)c3cc(NC(=O)c4nccn4C)cn3C)cn2C)cc1C(=O)NCCCC(=O)Nc1cn(C)c(C(=O)NCCC(=O)Nc2cc(C(=O)Nc3cn(C)c(C(=O)NCCC(=O)N4CCC(CN5CCNCC5)CC4)n3)n(C)c2)n1` [Compound B-127], the EC50 (with F35T cells; in experiment [1]) was 100 to 500 nM throughout.
On to `CC(=O)N1CCN(CC2CCN(C(=O)CCNC(=O)c3nc(NC(=O)c4cc(NC(=O)CCNC(=O)c5nc(NC(=O)CCCNC(=O)c6cc(NC(=O)c7nc(NC(=O)CCNC(=O)c8cc(NC(=O)c9nccn9C)cn8C)cn7C)cn6C)cn5C)cn4C)cn3C)CC2)CC1` [Compound B-128], for which the EC50 with F35T cells is under 100 nM; in experiment [1], 100 to 500 nM.
The like results for `CN1CCN(C2CCN(C(=O)CCNC(=O)c3nc(NC(=O)c4cc(NC(=O)CCNC(=O)c5nc(NC(=O)CCCNC(=O)c6cc(NC(=O)c7nc(NC(=O)CCNC(=O)c8cc(NC(=O)c9nccn9C)cn8C)cn7C)cn6C)cn5C)cn4C)cn3C)CC2)CC1` [Compound B-131] were, in that order, under 100 nM and 100 to 500 nM.
Taken in the same sequence, the figures for `Cn1cc(NC(=O)c2nc(NC(=O)CCNC(=O)c3cc(NC(=O)c4nccn4C)cn3C)cn2C)cc1C(=O)NCCCC(=O)Nc1cn(C)c(C(=O)NCCC(=O)Nc2cc(C(=O)Nc3cn(C)c(C(=O)NCCC(=O)NCC#CC#Cc4ccc(N)cc4)n3)n(C)c2)n1` [Compound B-132] were under 100 nM and under 100 nM.
`Cn1cc(NC(=O)c2nc(NC(=O)CCNC(=O)c3cc(NC(=O)c4nccn4C)cn3C)cn2C)cc1C(=O)NCCCC(=O)Nc1cn(C)c(C(=O)NCCC(=O)Nc2cc(C(=O)Nc3cn(C)c(C(=O)NCCC(=O)NCC#CC#Cc4ccccc4)n3)n(C)c2)n1` [Compound B-134]: the EC50 (in the experiment on F35T cells; in experiment [1]) was under 100 nM in each case.
Regarding `CN(C)c1ccc(C#CCNC(=O)CCNC(=O)c2nc(NC(=O)c3cc(NC(=O)CCNC(=O)c4nc(NC(=O)CCCNC(=O)c5cc(NC(=O)c6nc(NC(=O)CCNC(=O)c7cc(NC(=O)c8nccn8C)cn7C)cn6C)cn5C)cn4C)cn3C)cn2C)cc1` [Compound B-135], the EC50 in the experiment on F35T cells was 100 to 500 nM; in experiment [1] it was under 100 nM.
`Cn1cc(NC(=O)c2nc(NC(=O)CCNC(=O)c3cc(NC(=O)c4nccn4C)cn3C)cn2C)cc1C(=O)NCCCC(=O)Nc1cn(C)c(C(=O)NCCC(=O)Nc2cc(C(=O)Nc3cn(C)c(C(=O)NCCC(=O)NCC#Cc4ccccc4)n3)n(C)c2)n1` [Compound B-136]: the concentration giving a half-maximal response (EC50) (in the experiment on F35T cells; in experiment [1]) was 100 to 500 nM throughout.
In the case of `Cn1cc(NC(=O)c2nc(NC(=O)CCNC(=O)c3cc(NC(=O)c4nccn4C)cn3C)cn2C)cc1C(=O)NCCCC(=O)Nc1cn(C)c(C(=O)NCCC(=O)Nc2cc(C(=O)Nc3cn(C)c(C(=O)NCCC(=O)N4CCC(C5CNC5)CC4)n3)n(C)c2)n1` [Compound B-142], the EC50 in the experiment with F35T cells was 500 to 1000 nM; in experiment [1] it was 100 to 500 nM.
Turning to `CN1CC(C2CCN(C(=O)CCNC(=O)c3nc(NC(=O)c4cc(NC(=O)CCNC(=O)c5nc(NC(=O)CCCNC(=O)c6cc(NC(=O)c7nc(NC(=O)CCNC(=O)c8cc(NC(=O)c9nccn9C)cn8C)cn7C)cn6C)cn5C)cn4C)cn3C)CC2)C1` [Compound B-143], the EC50 (in the experiment with F35T cells; in experiment [1]) was 100 to 500 nM in each case.
In the case of `CCN(CC)CCCC[C@H](NC(C)=O)C(=O)Nc1ccc(OCCOCCOCCOCCOCCOCCOCCNC(=O)CCNC(=O)c2nc(NC(=O)c3cc(NC(=O)CCNC(=O)c4nc(NC(=O)CCCNC(=O)c5cc(NC(=O)c6nc(NC(=O)CCNC(=O)c7cc(NC(=O)c8nccn8C)cn7C)cn6C)cn5C)cn4C)cn3C)cn2C)cc1` [Compound B-144], the EC50 (with F35T cells; in experiment [1]) was 500 to 1000 nM throughout.
Turning to `CCN(CC)CCCC[C@H](NC(C)=O)C(=O)Nc1ccc(OCCOCCOCCOCCOCCNC(=O)CCNC(=O)c2nc(NC(=O)c3cc(NC(=O)CCNC(=O)c4nc(NC(=O)CCCNC(=O)c5cc(NC(=O)c6nc(NC(=O)CCNC(=O)c7cc(NC(=O)c8nccn8C)cn7C)cn6C)cn5C)cn4C)cn3C)cn2C)cc1` [Compound B-146], the EC50 (in the experiment on F35T cells; in experiment [1]) was 100 to 500 nM in each case.
